Data from the supplement of paper PMC10307832.

Columns and labels:
Test in all cases: relative viability (nuclei count vs DMSO), 5 days (fraction); higher = more cells survive
Dinaciclib + Dasatinib = compound: CCc1cnn2c(NCc3ccc[n+]([O-])c3)cc(N3CCCC[C@H]3CCO)nc12 [Dinaciclib] + Cc1nc(Nc2ncc(C(=O)Nc3c(C)cccc3Cl)s2)cc(N2CCN(CCO)CC2)n1 [Dasatinib] (partner 0.075 µM)
Summary of the method: (§1)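 A single step with final 0.05% Triton X-100, 1% formaldehyde and 1 ug/ml Hoechst fixed the cells and stained nuclei 5 days after treatment. Lung cancer cell lines in 1536-well plates had been treated by pin tool the day after seeding with one drug alone or a fixed anchor-drug dose plus five library-drug doses (not always all listed) in √10 steps, and nuclei were counted on 4× images. Relative viability is the ratio of nuclei in treated wells to nuclei in vehicle wells, taken as the median of duplicate plates.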

Dinaciclib + Olaparib = compound: CCc1cnn2c(NCc3ccc[n+]([O-])c3)cc(N3CCCC[C@H]3CCO)nc12 [Dinaciclib] + O=C(c1cc(Cc2n[nH]c(=O)c3ccccc23)ccc1F)N1CCN(C(=O)C2CC2)CC1 [Olaparib] (partner 8 µM)
Summary of the method: as §1

Dinaciclib + Tozasertib = compound: CCc1cnn2c(NCc3ccc[n+]([O-])c3)cc(N3CCCC[C@H]3CCO)nc12 [Dinaciclib] + Cc1cc(Nc2cc(N3CCN(C)CC3)nc(Sc3ccc(NC(=O)C4CC4)cc3)n2)n[nH]1 [Tozasertib] (partner 0.1 µM)
Summary of the method: as §1

Dinaciclib + Vorinostat = compound: CCc1cnn2c(NCc3ccc[n+]([O-])c3)cc(N3CCCC[C@H]3CCO)nc12 [Dinaciclib] + O=C(CCCCCCC(=O)Nc1ccccc1)NO [Vorinostat] (partner 1 µM)
Summary of the method: as §1

Dinaciclib + Linsitinib = compound: CCc1cnn2c(NCc3ccc[n+]([O-])c3)cc(N3CCCC[C@H]3CCO)nc12 [Dinaciclib] + C[C@]1(O)C[C@@H](c2nc(-c3ccc4ccc(-c5ccccc5)nc4c3)c3c(N)nccn32)C1 [Linsitinib] (partner 1 µM)
Summary of the method: as §1

Cell Line | relative viability (Dinaciclib + Dasatinib; first compound 0.009487 µM) | relative viability (Dinaciclib + Dasatinib; first compound 0.03 µM) | relative viability (Dinaciclib + Dasatinib; first compound 0.09487 µM) | relative viability (Dinaciclib + Dasatinib; first compound 0.3 µM) | relative viability (Dinaciclib + Olaparib; first compound 0.009487 µM) | relative viability (Dinaciclib + Olaparib; first compound 0.03 µM) | relative viability (Dinaciclib + Olaparib; first compound 0.09487 µM) | relative viability (Dinaciclib + Olaparib; first compound 0.3 µM) | relative viability (Dinaciclib + Tozasertib; first compound 0.009487 µM) | relative viability (Dinaciclib + Tozasertib; first compound 0.03 µM) | relative viability (Dinaciclib + Tozasertib; first compound 0.09487 µM) | relative viability (Dinaciclib + Tozasertib; first compound 0.3 µM) | relative viability (Dinaciclib + Vorinostat; first compound 0.009487 µM) | relative viability (Dinaciclib + Vorinostat; first compound 0.03 µM) | relative viability (Dinaciclib + Vorinostat; first compound 0.09487 µM) | relative viability (Dinaciclib + Vorinostat; first compound 0.3 µM) | relative viability (Dinaciclib + Linsitinib; first compound 0.009487 µM) | relative viability (Dinaciclib + Linsitinib; first compound 0.03 µM) | relative viability (Dinaciclib + Linsitinib; first compound 0.09487 µM) | relative viability (Dinaciclib + Linsitinib; first compound 0.3 µM)
LCLC-97TM1 | 0.718 | 0.434 | 0.14 | 0.108 | 0.322 | 0.0664 | 0.0584 | 0.0621 | 0.172 | 0.115 | 0.128 | 0.112 | 0.56 | 0.0645 | 0.0617 | 0.0592 | 0.168 | 0.12 | 0.126 | 0.107
LCLC-103H | 0.41 | 0.432 | 0.0877 | 0.0685 | 0.775 | 0.361 | 0.227 | 0.198 | 0.487 | 0.315 | 0.0924 | 0.0865 | 0.777 | 0.505 | 0.178 | 0.197 | 1.13 | 0.934 | 0.18 | 0.172
NCI-H522 | 0.979 | 0.589 | 0.36 | 0.319 | 0.573 | 0.469 | 0.339 | 0.204 | 0.488 | 0.418 | 0.372 | 0.278 | 1.13 | 0.99 | 0.449 | 0.319 | – | – | – | –
NCI-H1650 | 0.197 | 0.171 | 0.179 | 0.133 | 0.861 | 0.431 | 0.127 | 0.0993 | 0.363 | 0.176 | 0.119 | 0.147 | 0.798 | 0.175 | 0.119 | 0.125 | – | – | – | –
NCI-H1703 | – | – | – | – | 0.475 | 0.0997 | 0.0838 | 0.113 | – | – | – | – | – | – | – | – | 0.767 | 0.25 | 0.0664 | 0.0983
NCI-H1792 | 0.823 | 0.631 | 0.439 | 0.183 | 0.425 | 0.185 | 0.0516 | 0.0374 | – | – | – | – | – | – | – | – | 0.559 | 0.317 | 0.069 | 0.0552
NCI-H2170 | 0.475 | 0.137 | 0.123 | 0.13 | 0.429 | 0.11 | 0.0975 | 0.113 | 0.721 | 0.171 | 0.144 | 0.143 | 0.736 | 0.132 | 0.116 | 0.116 | – | – | – | –
NCI-H2342 | 0.333 | 0.289 | 0.248 | 0.23 | 0.391 | 0.306 | 0.176 | 0.192 | 0.491 | 0.468 | 0.231 | 0.203 | 0.75 | 0.685 | 0.703 | 0.323 | – | – | – | –
